Assays:
[1] = tested on: THP-1 cells; test: Lectin array of THP-1 monocyte cell surface glycan composition after monosaccharide supplementation; assay type: cell-based; conditions: 3 days
Procedure: THP-1 cells (monocyte cell line) were incubated with different sugars (i.e. monosaccharides) for 3 days. Lectin arrays were used to detect changes in the cell surface glycan composition. Secreted HDL from the cell supernatant (monocytes secrete their own HDL) was isolated and then analyzed to determine the glycan composition.
• ConA (Concanavalin A): binds internal and nonreducing terminal α-D-mannosyl (αMan) and α-D-glucosyl groups (αGIc) • JAC (Jacalin): binds galactose-containing O-glycoproteins (Galβ3GalNac) • SNA (Sambucus nigra): binds sialic acid attached to terminal galactose in α-2,6 and to a lesser degree, α-2,3 linkage (Neu5Acα6Gal/GalNac) • AAL (Aleuria auanda lectin): binds fucose linked (α-1,6) to N-acetylglucosamine or to fucose linked (α-1,3) to N-acetyllactosamine related structures, exposed core (α-1, 6) and outer arm (α-1, 2 or α-1, 3) linked fucose moieties. Sugar Treatments: • L-fucose: Tested 2 doses: 300 umol/L (physiologic) and 100 mmol/L. (Marquardt T, Blood, December 15; 94(12):3976-85, 1999): Named L-Fuc Low and L-Fuc High • Fructose: Tested 2 doses: 27 mmol/L (physiologic) and 100 mmol/L. (Hui H, Pancreas, August 38(6): 706-12, 2009); Named Fruc Low and Fruc High • N-acetylglucosamine (GlcNAc): Tested 1 dose: 100 mmol/L. (Villiger TK, Controlling the time evolution of mAb N-finked glycosylation, Part I: Microbioreactor experiments, Biotechnol Prog, September; 32(5):1123-1134, 2016) • Galactose: The two doses for the galactose treatment in the glycan array experiments were: 150 mmol/L and 75 mmol/L. (Villiger TK, Controlling the time evolution of mAb N-linked glycosylation, Part II: Model-based predictions, Biotechnol Prog, September; 32(5):135-1148, 2016)

[2] = tested on: Caco-2 cells; assay type: cell-based; conditions: for change in high mannose type glycans / change in the groups of cell surface glycans presented: treated vs untreated; for change in high mannose type glycans / decrease in fucosylated compounds: lactose 70 mg/L; for change in non-decorated complex/hybrid type N-glycans: galactose; for decrease in fucosylated compounds: high galactose; for change in the groups of cell surface glycans presented: glucose 25 mM, glutamate 2 mM, glutathione 2 mM; for change in fucosylated glycans / fucosylation: acetate, lactate
Procedure: (§1) We examined whether supplementation of free monosacchaides derived from diet changes N-glycosylation outcomes on the intestinal cell-surface at concentrations relevant to physiological conditions. Changes in glycosylation were assessed by globally releasing glycans from membrane proteins extracted from fully differentiated (Caco-2) and partially differentiated (HT-29) intestinal epithelial cells and analyzing the mixture by porous graphitized carbon (PGC)-LC-MS. […] The glycan profile under normal growth conditions was used as a frame of reference with which to compare the glycome at varied environments.
(§2) Human colorectal adenocarcinoma Caco-2 cells derived from a person, were obtained from American Type Culture Collection (ATCC, VA) and grown in Eagle's Minimum Essential Medium (EMEM) supplemented with non-essential amino acids, 2 mM L-glutamine, 10% (v/v) fetal bovine serum (Life Technologies, NY), 1 mM sodium pyruvate, 1.5 g/L sodium bicarbonate, 100 U/mL penicillin, and 100 μg/mL streptomycin. Alternatively, Caco-2 cells were grown in Dulbecco's Modified Eagle's Medium (DMEM) supplemented with 10% (v/v) fetal bovine serum, 100 U/mL penicillin, and 100 μg/mL streptomycin. Human colorectal adenocarcinoma HT-29 cells, derived from a person, were obtained from ATCC and grown in McCoy's 5A medium supplemented with 10% (v/v) fetal bovine serum, 100 U/mL penicillin, and 100 μg/mL streptomycin. Cells were subcultured at 80% confluency and maintained at 37° C. in a humidified incubator with 5% CO=2. All treatments were added to the media after cell differentiation. Caco-2 cells were fully differentiated 14-days post-confluency. HT-29 cells were partially differentiated 4-days post-confluency. After 72 h, cells were collected in biological triplicates by scraping A fixed count of 2×10^6 viable cells was used for each experiment Passage number between experiments was controlled to no higher than P40 and a delta P of no more than 20. High passage cells were scraped after P80. Media was renewed three times a week unless specified. Monolayer integrity and quality of cell borders were evaluated under the microscope routinely during growth and before harvest.
(§3) In brief harvested cells were resuspended in homogenization buffer containing 0.25 M sucrose, 20 mM HEPES-KOH (pH 7.4), and 1:100 protease inhibitor (EMD Millipore, CA). Cell lysis was performed on ice using a probe sonicator (Qsonica, CT) with five alternating and on and off pulses in 5 and 10 s intervals, respectively. Lysates were […] at 2,000×g for 10 min to remove the nuclear fraction and cellular debris. The supernatant was collected and brought to 1 mL with homogenization buffer for ultracentrifugation at 200,000×g for 45 min at 4° C. The pallet was resuspended and repelleted by ultracentrifugation in 0.2 M Na2CO3 (pH 11) followed by water to fragment the endoplasmic reticulum and remove the cytoplasmic fraction, respectively. The resulting membrane faction was isolated and stored at −20° C. until further processing.
(§4) Membrane pellets were resuspended with 100 μL of 100 mM ammonium bicarbonate in 5 mM dithiothreitol and heated for 10 s at 100° C. to thermally denature the proteins. […] After addition of 400 μL of chilled ethanol, samples were placed in −80° C. for 1.5 h and centrifuged for 20 min at 21,130×g to precipitate residual deglycosylated proteins. The supernatant containing the released N-glycans was collected and dried. N-Glycans were purified by solid phase extraction containing a porous graphitized carbon (PGC) matrix. Eluted fractions were dried in vacuo.

[3] = tested on: HT-29 cells; test: Cell surface N-glycan profiling (PGC-LC-MS) of HT-29 after supplementation; assay type: cell-based, Human; conditions: for change in high mannose type glycans: glutamate 2 mM; for change in the HT-29 glycome / major groups of glycans: acetate, lactate 10 mM, glutathione 2 mM
Procedure: as §1, §2, §3, §4

[4] = cited from earlier work
[5] = high dose (galactose 150 mmol/L, fructose 100 mmol/L, L-fucose 100 mmol/L)
[6] = low dose (galactose 75 mmol/L, fructose 27 mmol/L, L-fucose 300 umol/L)
[7] = HT-29, 72 h, fructose 50 mM, glutamine 10 mM
[8] = Caco-2, 72 h, fucose 25 mM, butyrate 10 mM, glutamine 10 mM

O=C[C@H](O)[C@@H](O)[C@@H](O)[C@H](O)CO [galactose]
AAL binding (fucosylated glycans) [1, 5]: increased
ConA binding (glucose or mannose-terminated glycans) [1, 5]: increased
JAC binding (terminal galactose containing glycans) [1, 5]: increased
SNA binding (terminal sialic acid) [1, 5]: increased
JAC binding (terminal galactose containing glycans) [1, 6]: decreased
SNA binding (terminal sialic acid) [1, 6]: increased
change in high mannose type glycans ([2]; Caco-2, 72 h, glutamine 10 mM): significant Increases
change in non-decorated complex/hybrid type N-glycans ([2]; Caco-2, 72 h, glutamine 10 mM): significant Increases
decrease in fucosylated compounds ([2]; Caco-2, 72 h): 20%
decrease in relative abundances of fucosylated and sialylated glycans ([2]; Caco-2, galactose-treated, 72 h): 12-28%
afucosylated glycans as share of all complex/hybrid glycans ([2]; galactose-treated Caco-2 (untreated 15%)): 46%
asialylated glycans as share of all complex/hybrid glycans ([2]; galactose-treated Caco-2 (untreated 23%)): 58%

N[C@@H](CCC(=O)O)C(=O)O [glutamate]
change in the groups of cell surface glycans presented ([2]; Caco-2, 72 h): relatively unaffected
change in high mannose type glycans [3, 7]: unperturbed
decline in fucosylation with respect to the control ([3]; HT-29, glutamate 2 mM, 72 h): 44.4%

NC(=O)CC[C@H](N)C(=O)O [glutamine, L-glutamine]
change in high mannose type glycans ([2]; Caco-2, 72 h, glutamine 10 mM): significant increases
increase in abundance of high mannose type N-glycans ([2]; Caco-2, 72 h, fructose 50 mM, glutamine 10 mM): 507%
change in sialylated glycans ([2]; Caco-2, 72 h, fucose 25 mM, Ac5-Sia up to 10 mM, butyrate 10 mM, glutamine 10 mM): remarkable constancy
change in fucosylated glycans / fucosylation [2, 8]: significant increases
change in non-decorated complex/hybrid type N-glycans ([2]; Caco-2, 72 h, glutamine 10 mM): significant increases
fold increase of each of Man 5-Man 9 ([2]; Caco-2, glutamine 10 mM, 72 h): more than 6 fold
change in fucosylated glycans [3, 7]: significant increases
change in high mannose type glycans [3, 7]: significant increases
change in non-decorated complex/hybrid types of glycans ([3]; HT-29, glutamine 10 mM, 72 h): significant increases

N[C@@H](CCC(=O)N[C@@H](CS)C(=O)NCC(=O)O)C(=O)O [glutathione]
change in the groups of cell surface glycans presented ([2]; Caco-2, 72 h): essentially unaltered
change in the HT-29 glycome / major groups of glycans ([3]; HT-29, 72 h): essentially unaltered
increase in high mannose type glycans ([3]; HT-29, glutathione 2 mM, 72 h): 37.1%

CC(O)C(=O)O (centres unmarked) [lactate]
change in fucosylated glycans / fucosylation [2, 8]: significant increase
fold decrease of Hex6HexNAc6Fuc1NeuAc3 ([2]; Caco-2, SCFA 10 mM, 72 h): 3.7 fold
fold decrease of Hex7HexNAc7Fuc1NeuAc1 ([2]; Caco-2, SCFA 10 mM, 72 h): 3.4 fold
fold increase of Hex6HexNAc6NeuAc1 ([2]; Caco-2, SCFA 10 mM, 72 h): 10 fold
change in the HT-29 glycome / major groups of glycans ([3]; HT-29, 72 h): minimal effects

OC[C@H]1O[C@@H](O[C@H]2[C@H](O)[C@@H](O)C(O)O[C@@H]2CO)[C@H](O)[C@@H](O)[C@H]1O (some centres unmarked) [lactose]
change in high mannose type glycans ([2]; Caco-2, 72 h, glutamine 10 mM): did not cause dramatic changes
decrease in fucosylated compounds ([2]; Caco-2, 72 h): 20%

CC(=O)N[C@H]1[C@H]([C@H](O)[C@H](O)CO)OC(O)(C(=O)O)C[C@@H]1O (some centres unmarked) [sialic acid]
pKa [4]: 2.6
